Assay type in all cases: biochemical
In test [1] the target is Bovine LOX (Bos taurus (Bovine), UniProt P33072). In words: LOX inhibition, peroxidase-coupled Amplex Red amine oxidase assay. As to conditions: 30 min preincubation at 37° C., putrescine substrate. In a few lines:
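Bovine LOX in 1.2 M urea, 50 mM sodium borate pH 8.2 with 1 μM mofegiline and 0.5 mM pargyline; putrescine at twice KM (e.g. 20 mM for LOX) with Amplex Red/HRP. Fluorescence (ex 565/em 590 nm) read kinetically over 30 min at 37–45 °C; IC50 from slopes.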

In test [2] the target is Human LOXL2 (Homo sapiens (Human), UniProt Q9Y4K0). In words: LOXL2 inhibition, peroxidase-coupled Amplex Red amine oxidase assay. Particulars: 30 min preincubation at 37° C., putrescine substrate. In a few lines: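 Enzyme in 1.2 M urea, 50 mM sodium borate pH 8.2 with 1 μM mofegiline and 0.5 mM pargyline, preincubated 30 min at 37° C with compound (11-point CRC). Putrescine at twice KM (10 mM for LOXL2) with Amplex Red/HRP; fluorescence (ex 565, em 590) read kinetically 30 min; IC50 from slopes.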
Human LOXL2, sequence (Q9Y4K0 26-774): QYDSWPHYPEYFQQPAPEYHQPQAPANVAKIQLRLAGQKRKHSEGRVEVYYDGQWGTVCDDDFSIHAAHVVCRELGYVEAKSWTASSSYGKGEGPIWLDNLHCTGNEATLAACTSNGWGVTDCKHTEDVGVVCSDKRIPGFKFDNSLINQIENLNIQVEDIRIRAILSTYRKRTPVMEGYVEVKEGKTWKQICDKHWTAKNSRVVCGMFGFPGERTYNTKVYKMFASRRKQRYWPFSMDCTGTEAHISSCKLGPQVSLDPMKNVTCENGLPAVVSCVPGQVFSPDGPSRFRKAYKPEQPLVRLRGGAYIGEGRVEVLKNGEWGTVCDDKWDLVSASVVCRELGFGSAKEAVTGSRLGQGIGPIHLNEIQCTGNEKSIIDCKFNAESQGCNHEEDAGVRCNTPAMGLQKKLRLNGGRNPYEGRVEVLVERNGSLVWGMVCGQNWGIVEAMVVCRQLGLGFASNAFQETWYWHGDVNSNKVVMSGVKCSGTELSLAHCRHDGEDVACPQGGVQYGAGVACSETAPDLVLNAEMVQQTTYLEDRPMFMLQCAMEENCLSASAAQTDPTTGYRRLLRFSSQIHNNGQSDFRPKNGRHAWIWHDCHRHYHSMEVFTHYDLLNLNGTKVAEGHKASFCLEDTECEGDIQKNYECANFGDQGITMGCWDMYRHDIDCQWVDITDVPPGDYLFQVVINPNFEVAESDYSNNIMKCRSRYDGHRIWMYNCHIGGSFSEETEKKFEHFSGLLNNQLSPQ

Test [3] has as its target human recombinant SSAO/VAP-1 (Homo sapiens (Human), UniProt Q16853). The experiment in a line: Inhibition of human recombinant SSAO/VAP-1 amine oxidase activity. Particulars: 30 min preincubation at 37° C., 600 μM benzylamine. In a few lines: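 Purified SSAO/VAP-1 (residues 34-763, expressed in CHO Lec 8 cells; 0.25 μg/mL) preincubated 30 min at 37° C with compound in 0.1 M sodium phosphate pH 7.4. Reaction mix of 600 μM benzylamine, 120 μM Amplex Red and 1.5 U/mL HRP added; fluorescence (ex 565/em 590 nm) read every 2.5 min for 30 min; IC50 from kinetic slopes over 4-11 point curves.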

Test [4] has as its target Recombinant human MAO-B (Homo sapiens (Human), UniProt P27338). In words: Inhibition of human recombinant MAO-B. As to conditions: benzylamine 100 μM. In a few lines:
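Recombinant human MAO-B used as enzyme source (0.06 mg/mL, stated concentration). Run as for the human SSAO/VAP-1 assay, except benzylamine substrate at 100 μM.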

pIC50: −log10 of the molar value. Counter-ions that a name gives are not always drawn.

Recombinant human MAO-B, sequence (P27338 whole entry): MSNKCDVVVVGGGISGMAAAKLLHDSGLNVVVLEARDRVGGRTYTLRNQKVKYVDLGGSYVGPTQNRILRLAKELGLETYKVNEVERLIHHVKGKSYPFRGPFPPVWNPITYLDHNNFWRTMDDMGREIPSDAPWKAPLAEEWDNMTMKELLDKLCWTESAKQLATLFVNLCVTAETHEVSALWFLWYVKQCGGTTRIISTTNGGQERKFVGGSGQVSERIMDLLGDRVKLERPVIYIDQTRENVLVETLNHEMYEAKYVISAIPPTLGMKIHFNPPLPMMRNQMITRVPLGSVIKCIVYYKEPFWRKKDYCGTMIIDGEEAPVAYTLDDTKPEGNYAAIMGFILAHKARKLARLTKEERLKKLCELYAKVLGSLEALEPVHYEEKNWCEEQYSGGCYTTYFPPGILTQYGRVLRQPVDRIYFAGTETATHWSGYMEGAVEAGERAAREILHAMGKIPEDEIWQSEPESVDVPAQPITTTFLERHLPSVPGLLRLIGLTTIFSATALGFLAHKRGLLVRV
human recombinant SSAO/VAP-1, sequence (Q16853 34-763): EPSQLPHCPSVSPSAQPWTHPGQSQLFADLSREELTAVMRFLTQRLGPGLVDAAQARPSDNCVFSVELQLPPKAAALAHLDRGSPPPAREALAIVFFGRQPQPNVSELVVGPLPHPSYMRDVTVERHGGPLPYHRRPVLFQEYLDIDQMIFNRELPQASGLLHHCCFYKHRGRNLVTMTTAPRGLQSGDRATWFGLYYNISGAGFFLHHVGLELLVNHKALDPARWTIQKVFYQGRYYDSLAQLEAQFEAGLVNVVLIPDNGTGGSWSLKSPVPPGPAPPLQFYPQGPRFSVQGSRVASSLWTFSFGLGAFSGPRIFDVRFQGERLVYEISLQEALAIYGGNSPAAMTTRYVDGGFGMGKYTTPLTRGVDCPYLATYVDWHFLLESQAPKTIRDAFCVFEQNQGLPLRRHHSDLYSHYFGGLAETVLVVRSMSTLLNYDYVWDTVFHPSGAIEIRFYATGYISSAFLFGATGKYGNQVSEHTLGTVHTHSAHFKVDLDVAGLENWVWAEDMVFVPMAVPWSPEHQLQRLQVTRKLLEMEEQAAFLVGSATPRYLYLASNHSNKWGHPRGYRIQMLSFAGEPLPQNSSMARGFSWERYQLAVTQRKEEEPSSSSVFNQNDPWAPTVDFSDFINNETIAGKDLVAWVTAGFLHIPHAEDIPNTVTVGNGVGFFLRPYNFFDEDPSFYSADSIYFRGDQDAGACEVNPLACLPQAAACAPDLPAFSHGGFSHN
Bovine LOX, sequence (P33072 170-418): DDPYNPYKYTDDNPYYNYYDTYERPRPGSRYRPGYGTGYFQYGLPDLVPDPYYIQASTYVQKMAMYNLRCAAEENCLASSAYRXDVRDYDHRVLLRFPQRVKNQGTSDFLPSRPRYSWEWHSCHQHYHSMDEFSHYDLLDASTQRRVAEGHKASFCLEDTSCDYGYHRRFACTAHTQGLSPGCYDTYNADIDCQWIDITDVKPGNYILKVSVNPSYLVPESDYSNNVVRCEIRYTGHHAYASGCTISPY

Consider `CN(C)S(=O)(=O)c1cncc(-c2cn(C/C(F)=C/CN)c3ccc(Cl)cc23)c1` [Compound 66, (Z)-5-(1-(4-amino-2-fluorobut-2-en-1-yl)-5-chloro-1H-indol-3-yl)-N,N-dimethylpyridine-3-sulfonamide], for which the pIC50 (in general, the IC50 on a negative log10 scale, so that one unit is a factor of ten) is less than 6.52 in test [1], more than 6.52 in test [2], less than 5.52 in test [3] and less than 5.52 in test [4].

`Cc1c(-c2cncc(S(=O)(=O)N(C)C)c2)c2ccc(Cl)cc2n1C/C(F)=C/CN` [Compound 67, (Z)-5-(1-(4-amino-2-fluorobut-2-en-l-yl)-6-chloro-2-methyl-1H-indol-3-yl)-N,N-dimethylpyridine-3-sulfonamide, Dihydrochloride]: the pIC50 in test [1] was less than 6.52; in test [2], more than 6.52; in test [3], less than 5.52; in test [4] it was less than 5.52.

For `COc1ccc2c(n1)c(-c1cccc(SC)c1)c(C)n2C/C(F)=C/CN` [Compound 68, (Z)-3-fluoro-4-(5-methoxy-2-methyl-3-(3-(methylthio)phenyl)-1H-pyrrolo[3,2-b]pyridin-1-yl)but-2-en-1-amine Dihydrochloride], the pIC50 in test [1] is less than 6.52; in test [2], more than 6.52; in test [3], less than 5.52; in test [4], less than 5.52.

`COc1ccc2c(n1)c(-c1cccc(S(C)(=O)=O)c1)c(C)n2C/C(F)=C/CN` [Compound 69, (Z)-3-fluoro-4-(5-methoxy-2-methyl-3-(3-(methylsulfonyl)phenyl)-1H-pyrrolo[3,2-b]pyridin-1-yl)but-2-en-1-amine Dihydrochloride]: the pIC50 in test [1] was less than 6.52; in test [2], more than 6.52; in test [3], less than 5.52; in test [4], less than 5.52.

For `CNS(=O)(=O)c1cncc(-c2c(C)n(C/C(F)=C/CN)c3ccc(Cl)cc23)c1` [Compound 70, (Z)-5-(1-(4-amino-2-fluorobut-2-en-1-yl)-5-chloro-2-methyl-1H-indol-3-yl)-N-methylpyridine-3-sulfonamide], the negative logarithm of the IC50 (pIC50) in test [1] is less than 6.52; in test [2] it was more than 6.52; in test [3] it was less than 5.52; in test [4] it was less than 5.52.

Consider `Cc1c(-c2cncc(S(=O)(=O)N(C)C)c2)c2cc(F)ccc2n1C/C(F)=C/CN` [Compound 71, (Z)-5-(1-(4-amino-2-fluorobut-2-en-1-yl)-5-fluoro-2-methyl-1H-indol-3-yl)-N,N-dimethylpyridine-3-sulfonamide], for which the negative logarithm of the IC50 (pIC50) is less than 6.52 in test [1], more than 6.52 in test [2], less than 5.52 in test [3] and less than 5.52 in test [4].

As to `Cc1c(-c2cncc(S(=O)(=O)N(C)C)c2)c2ncc(Cl)cc2n1C/C(F)=C/CN` [Compound 72, (Z)-5-(1-(4-amino-2-fluorobut-2-en-1-yl)-6-chloro-2-methyl-1H-pyrrolo[3,2-b]pyridin-3-yl)-N,N-dimethylpyridine-3-sulfonamide], the negative logarithm of the IC50 (pIC50) in test [1] was less than 6.52; in test [2] it was more than 6.52; in test [3] it was less than 5.52; in test [4] it was less than 5.52.

For the molecule `Cc1c(-c2cncc(S(=O)(=O)N(C)C)c2)c2cc(Cl)cnc2n1C/C(F)=C/CN` [Compound 73, (Z)-5-(1-(4-amino-2-fluorobut-2-en-1-yl)-5-chloro-2-methyl-1H-pyrrolo[2,3-b]pyridin-3-yl)-N,N-dimethylpyridine-3-sulfonamide], the pIC50 is less than 6.52 in test [1], more than 6.52 in test [2], less than 5.52 in test [3] and less than 5.52 in test [4].

`Cc1c(-c2cncc(S(=O)(=O)N(C)C)c2)c2cccc(Cl)c2n1C/C(F)=C/CN` [Compound 74, (Z)-5-(1-(4-amino-2-fluorobut-2-en-1-yl)-7-chloro-2-methyl-1H-indol-3-yl)-N,N-dimethylpyridine-3-sulfonamide]: the pIC50 in test [1] is less than 6.52; in test [2] it was more than 6.52; in test [3], less than 5.52; in test [4] it was less than 5.52.

In the case of `Cc1c(-c2cncc(S(=O)(=O)N(C)C)c2)c2c(Cl)cccc2n1C/C(F)=C/CN` [Compound 75, (Z)-5-(1-(4-amino-2-fluorobut-2-en-1-yl)-4-chloro-2-methyl-1H-indol-3-yl)-N,N-dimethylpyridine-3-sulfonamide], the pIC50 was less than 6.52 in test [1], more than 6.52 in test [2], less than 5.52 in test [3] and less than 5.52 in test [4].

For `Cc1c(-c2ccncc2)c2cc(Cl)ccc2n1C/C(F)=C/CN` [Compound 76, (Z)-4-(5-chloro-2-methyl-3-(pyridin-4-yl)-1H-indol-1-yl)-3-fluorobut-2-en-1-amine], the pIC50 in test [1] is less than 6.52; in test [2] it was more than 6.52; in test [3], less than 5.52; in test [4], less than 5.52.

In the case of `Cc1c(-c2cccnc2)c2cc(Cl)ccc2n1C/C(F)=C/CN` [Compound 77, (Z)-4-(5-chloro-2-methyl-3-(pyridin-3-yl)-1H-indol-1-yl)-3-fluorobut-2-en-1-amine], the pIC50 in test [1] was less than 6.52; in test [2], more than 6.52; in test [3] it was less than 5.52; in test [4] it was less than 5.52.

With `Cc1c(-c2cccc(S(=O)(=O)N(C)C)n2)c2cc(Cl)ccc2n1C/C(F)=C/CN` [Compound 78, (Z)-6-(1-(4-amino-2-fluorobut-2-en-1-yl)-5-chloro-2-methyl-1H-indol-3-yl)-N,N-dimethylpyridine-2-sulfonamide], the pIC50 was less than 6.52 in test [1], more than 6.52 in test [2], less than 5.52 in test [3] and less than 5.52 in test [4].

As to `Cc1c(-c2cncc(S(=O)(=O)N(C)C)c2)c2cc(C3CC3)ccc2n1C/C(F)=C/CN` [Compound 79, (Z)-5-(1-(4-amino-2-fluorobut-2-en-1-yl)-5-cyclopropyl-2-methyl-1H-indol-3-yl)-N,N-dimethylpyridine-3-sulfonamide], the pIC50 in test [1] is less than 6.52; in test [2] it was more than 6.52; in test [3], less than 5.52; in test [4] it was less than 5.52.

For the molecule `Cc1c(-c2cncnc2)c2cc(Cl)ccc2n1C/C(F)=C/CN` [Compound 80, (Z)-4-(5-chloro-2-methyl-3-(pyrimidin-5-yl)-1H-indol-1-yl)-3-fluorobut-2-en-1-amine], the pIC50 in test [1] was less than 6.52; in test [2], more than 6.52; in test [3], less than 5.52; in test [4], less than 5.52.

On to `Cc1c(-c2ccncc2)c2cc(S(=O)(=O)N(C)C)ccc2n1C/C(F)=C/CN` [Compound 81, (Z)-1-(4-amino-2-fluorobut-2-en-1-yl)-N,N,2-trimethyl-3-(pyridin-4-yl)-1H-indole-5-sulfonamide], for which the pIC50 was less than 6.52 in test [1], more than 6.52 in test [2], less than 5.52 in test [3] and less than 5.52 in test [4].

For the molecule `Cc1ccc(S(=O)(=O)N(C)C)cc1-c1c(C)n(C/C(F)=C/CN)c2c(F)cc(Cl)cc12` [Compound 82, (Z)-3-(1-(4-amino-2-fluorobut-2-en-1-yl)-5-chloro-7-fluoro-2-methyl-1H-indol-3-yl)-N,N,4-trimethylbenzenesulfonamide], the pIC50 in test [1] was less than 6.52; in test [2] it was more than 6.52; in test [3], less than 5.52; in test [4], less than 5.52.

Consider `Cc1c(-c2cncc(S(N)(=O)=O)c2)c2cc(Cl)ccc2n1C/C(F)=C/CN` [Compound 83, (Z)-5-(1-(4-amino-2-fluorobut-2-en-1-yl)-5-chloro-2-methyl-1H-indol-3-yl)pyridine-3-sulfonamide], for which the pIC50 in test [1] was less than 6.52; in test [2] it was more than 6.52; in test [3], less than 5.52; in test [4], less than 5.52.

Take `Cc1c(-c2cncc(S(=O)(=O)N(C)C)c2)c2cc(OC(F)(F)F)ccc2n1C/C(F)=C/CN` [Compound 85, (Z)-5-(1-(4-amino-2-fluorobut-2-en-1-yl)-2-methyl-5-(trifluoromethoxy)-1H-indol-3-yl)-N,N-dimethyl-pyridine-3-sulfonamide Dihydrochloride]: the pIC50 in test [1] is less than 6.52; in test [2], more than 6.52; in test [3], less than 5.52; in test [4], less than 5.52.

As for `Cc1c(-c2ccccc2)c2cc(S(=O)(=O)N(C)C)ccc2n1C/C(F)=C/CN` [Compound 86, (Z,)-1-(4-amino-2-fluorobut-2-en-1-yl)-N,N,2-trimethyl-3-phenyl-1H-indole-5-sulfonamide], the pIC50 in test [1] was less than 6.52; in test [2] it was more than 6.52; in test [3], less than 5.52; in test [4], less than 5.52.

Regarding `Cc1c(-c2ccccc2)c2cc(S(C)(=O)=O)ccc2n1C/C(F)=C/CN` [Compound 87, (Z)-3-fluoro-4-(2-methyl-5-(methylsulfonyl)-3-phenyl-1H-indol-1-yl)but-2-en-1-amine], the pIC50 in test [1] was less than 6.52; in test [2] it was more than 6.52; in test [3] it was less than 5.52; in test [4], less than 5.52.

(Values after patent US10717733B2, “Haloallylamine indole and azaindole derivative inhibitors of lysyl oxidases and uses thereof” (PHARMAXIS LTD., priority 2016, dated 2020).)
